According to ChEMBL document CHEMBL5725500, “Substituted spiropiperidinyl compounds useful as GPR120 agonists” (2017):

These compounds were tested against T1, Free fatty acid receptor 4 (Homo sapiens, UniProt Q5NUL3) (assay: FLIPR Assay: On the day before the measurement day, CHO cells expressing human GPR120 were plated at 10000 cells per well in a 384-well black plate (#3702, Corning) and incubated overnight in a CO2 incubator. On the day of the measurement, 4 μM Fluo-4 AM (fluorescence calcium indicator reagent) was incubated to be introduced into the human GPR120 expression CHO cells in the presence of 0.08% Pluronic F-127 in a CO2 incubator for 90 minutes. To the cells was added the test compound diluted with HBSS solution containing 20 mM HEPES and 2.5 mM probenecid. Variations in the intracellular calcium concentration were measured by Fluorescence Imaging Plate Reader (FLIPR; Molecular Devices) to examine the agonist action, and EC50 values were calculated.).
T1 sequence (Q5NUL3 whole entry): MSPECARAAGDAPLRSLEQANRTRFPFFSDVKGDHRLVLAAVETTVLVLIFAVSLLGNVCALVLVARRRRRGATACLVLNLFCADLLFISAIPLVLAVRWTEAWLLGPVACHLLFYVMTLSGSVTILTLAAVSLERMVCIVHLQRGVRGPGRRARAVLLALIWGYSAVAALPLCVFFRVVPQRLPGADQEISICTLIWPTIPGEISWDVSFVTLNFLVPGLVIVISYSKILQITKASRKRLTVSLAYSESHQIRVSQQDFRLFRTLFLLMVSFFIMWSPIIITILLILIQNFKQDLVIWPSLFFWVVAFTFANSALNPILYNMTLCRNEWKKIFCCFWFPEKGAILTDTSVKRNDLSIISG
Format: cell-based

| EC50 [nM] | Compound |
| --- | --- |
| 472 | OCCC1CCC2(CC1)CCN(c1cc(OC(F)(F)F)ccc1Cl)CC2 |
| 4220 | Cc1cccc(Oc2ccc(C#N)c(N3CCC4(CCC(CC(=O)O)CC4)CC3)c2)n1 |
| 3240 | O=C(O)C[C@@H]1CCC2(CCN(c3cc(OC4CCC4)ccc3F)CC2)OC1 |
| 1210 | O=C(O)CC1CCC2(CCN(c3cc(OC(F)(F)F)ccc3F)CC2)OC1 (configuration not stated) |
| 1650 | O=C(O)C[C@H]1CCC2(CCN(c3cc(OC4CCC4)ccc3Cl)CC2)OC1 |
| 2380 | COc1cc(F)cc(N2CCC3(CC2)CC(CC(=O)O)CO3)c1 (configuration not stated) |
| 4970 | Cc1ccnc(Oc2ccc(C#N)c(N3CCC4(CCC(CC(=O)O)CC4)CC3)c2)c1 |
